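Grown in 96-well plates, cells were treated for 48 hours with each compound at five concentrations. Insufficient inhibition: endpoint recorded as highest concentration tested. Definition used: TGI = concentration required for complete inhibition of growth.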

Among the test systems are SNB-19 CNS; SF-268 CNS; T-47D breast; A549 NSCLC; SNB-75 CNS; CCRF-CEM leukemia; HCT-15 colon; 786-0 renal; KM12 colon; HL-60(TB) leukemia; HT29 colon; OVCAR-8 ovarian; HOP-62 NSCLC; LOX IMVI melanoma; NCI-H522 lung.
Assay in all cases: NCI-60 cell line screen, 48 h

`COCn1cc(C2=C(C)C(=O)C(C)=C(C)C2=O)cn1`: the TGI was > 100 µM in the assay on SNB-19 CNS; 66 µM with SF-268 CNS; 56.1 µM in the assay on T-47D breast; > 100 µM in the assay on A549 NSCLC; > 100 µM in the assay on SNB-75 CNS; 60.8 µM in the assay with CCRF-CEM leukemia. Moreover, the TGI with HCT-15 colon is > 100 µM; with 786-0 renal, 32.2 µM; in the assay with KM12 colon, > 100 µM; in the assay with HL-60(TB) leukemia, 24.3 µM; in the assay with HT29 colon, > 100 µM; in the assay on OVCAR-8 ovarian it was 36.8 µM. Besides, the TGI in the assay with HOP-62 NSCLC was > 100 µM.
For `N=c1oc2ccccc2cc1C(=O)Nc1cccc2ccccc12`, the TGI with SNB-19 CNS, in the assay on SF-268 CNS, in the assay with T-47D breast, with A549 NSCLC, in the assay on SNB-75 CNS and with LOX IMVI melanoma was > 100 µM in each case. Besides, the TGI in the assay with CCRF-CEM leukemia, with HCT-15 colon, with 786-0 renal, in the assay on KM12 colon, in the assay with HL-60(TB) leukemia and in the assay on HT29 colon was > 100 µM throughout. The TGI with OVCAR-8 ovarian and in the assay with HOP-62 NSCLC was > 100 µM throughout.
Turning to `CSC1=NN(C(C)=O)C(C(OC(C)=O)C(OC(C)=O)C(OC(C)=O)C(COC(C)=O)OC(C)=O)S1` (stereo not given), the TGI with SNB-19 CNS, in the assay on SF-268 CNS, in the assay with T-47D breast, in the assay with A549 NSCLC, with SNB-75 CNS and in the assay on LOX IMVI melanoma was > 100 µM in each case. The TGI with CCRF-CEM leukemia, with HCT-15 colon, with 786-0 renal, in the assay on KM12 colon, in the assay on HL-60(TB) leukemia and in the assay on HT29 colon was > 100 µM in each case. Further, the TGI with NCI-H522 lung, with OVCAR-8 ovarian and in the assay on HOP-62 NSCLC was > 100 µM in each case.
Turning to `CC1(C)CC[C@]2(C(=O)O)CC[C@]3(C)C(=CCC4=C5C[C@H](O)[C@H](O)[C@@](C)(CO)[C@@]5(C)CC[C@]43C)[C@@H]2C1`, the TGI in the assay on SNB-19 CNS is > 100 µM; in the assay with SF-268 CNS, > 100 µM; in the assay on T-47D breast, 89.5 µM; in the assay with A549 NSCLC it was > 100 µM; in the assay with SNB-75 CNS, 83.8 µM; in the assay on LOX IMVI melanoma, > 100 µM. Further, the TGI with CCRF-CEM leukemia, in the assay on HCT-15 colon, with 786-0 renal, in the assay with KM12 colon, in the assay with HL-60(TB) leukemia and with HT29 colon was > 100 µM in each case. The TGI in the assay on NCI-H522 lung, in the assay with OVCAR-8 ovarian and in the assay with HOP-62 NSCLC was > 100 µM in each case.
Consider `Cn1nnc2c(C(N)=S)ncn2c1=O`, for which the TGI in the assay with SNB-19 CNS, with SF-268 CNS, with T-47D breast, in the assay with A549 NSCLC, in the assay with SNB-75 CNS and in the assay on LOX IMVI melanoma was > 100 µM in each case. For the same compound, the TGI with CCRF-CEM leukemia, in the assay with HCT-15 colon, in the assay on 786-0 renal, in the assay on KM12 colon, with HL-60(TB) leukemia and with HT29 colon was > 100 µM each time. The TGI with NCI-H522 lung, with OVCAR-8 ovarian and in the assay on HOP-62 NSCLC was > 100 µM in each case.
Consider `C=C1CN=C(Nc2ccc(Cl)cc2)S1`, for which the TGI in the assay on SNB-19 CNS, with SF-268 CNS, with T-47D breast, in the assay with A549 NSCLC, with SNB-75 CNS and in the assay on LOX IMVI melanoma was > 100 µM in each case. The TGI in the assay with CCRF-CEM leukemia is > 100 µM; with HCT-15 colon it was > 100 µM; in the assay on 786-0 renal, > 100 µM; in the assay with KM12 colon it was > 100 µM; in the assay with HL-60(TB) leukemia, > 10 µM; in the assay with HT29 colon it was > 100 µM. Besides, the TGI in the assay with OVCAR-8 ovarian and in the assay with HOP-62 NSCLC was > 100 µM throughout.
Regarding `CN(C)[C@@H]1C(=O)C(C(=O)NCNc2nc3n[nH]nc3c(=O)[nH]2)=C(O)[C@@]2(O)C(=O)C3=C(O)c4c(O)cccc4[C@@](C)(O)[C@H]3C[C@@H]12`, the TGI in the assay with SNB-19 CNS was > 100 µM; in the assay with SF-268 CNS, > 92.2 µM; in the assay with T-47D breast, > 100 µM; with A549 NSCLC it was > 100 µM; in the assay on SNB-75 CNS it was > 95.8 µM; in the assay on LOX IMVI melanoma, 17.3 µM. The TGI was > 17.7 µM in the assay with CCRF-CEM leukemia; > 100 µM in the assay on HCT-15 colon; > 100 µM in the assay with 786-0 renal; > 100 µM in the assay on KM12 colon; 11.6 µM in the assay on HL-60(TB) leukemia; > 100 µM with HT29 colon. The figures for the TGI in the assay with NCI-H522 lung, in the assay with OVCAR-8 ovarian and with HOP-62 NSCLC were > 80.3 µM, > 100 µM and 27.2 µM, respectively.
Consider `O=C(Sc1c(-c2ccccc2)c(=O)n(-c2ccccc2)c(=S)n1-c1ccccc1)c1ccccc1`, for which the TGI is > 100 µM in the assay on SNB-19 CNS; > 100 µM in the assay with SF-268 CNS; > 100 µM in the assay on T-47D breast; > 100 µM in the assay on A549 NSCLC; 88.2 µM in the assay on SNB-75 CNS; > 100 µM in the assay on LOX IMVI melanoma. Moreover, the TGI in the assay on CCRF-CEM leukemia is 76.3 µM; in the assay on HCT-15 colon, > 100 µM; in the assay on 786-0 renal, > 100 µM; with KM12 colon, > 100 µM; in the assay on HL-60(TB) leukemia, > 100 µM; with HT29 colon, > 100 µM. Moreover, the TGI with NCI-H522 lung, in the assay on OVCAR-8 ovarian and with HOP-62 NSCLC was > 100 µM each time.
In the case of `C=C(C)[C@H]1CC[C@@]23O[C@@H]2[C@@H](C[C@@]2(C)CC(=O)[C@H](CC(=O)C1)O2)OC(=O)[C@@]12CC[C@H](C(=C)C)CC(=O)C[C@H]4O[C@](C)(CC4=O)C[C@@H](OC3=O)[C@@H]1O2`, the TGI in the assay with SNB-19 CNS, in the assay with T-47D breast, in the assay with A549 NSCLC, with SNB-75 CNS, in the assay on LOX IMVI melanoma and with CCRF-CEM leukemia was > 100 µM in each case. The TGI in the assay on HCT-15 colon, with 786-0 renal, with KM12 colon, in the assay on HL-60(TB) leukemia, in the assay with HT29 colon and in the assay with NCI-H522 lung was > 100 µM throughout. Besides, the TGI with OVCAR-8 ovarian and in the assay with HOP-62 NSCLC was > 100 µM throughout.

The values are drawn from PubChem BioAssay (NCI).
